This data set can be described thus: Storage stability in humidity chamber at 50% RH and 25° C., evaluated by XRPD. It is filed as physicochemical. The note with it: about 50% relative humidity. As to the method:
The X-ray powder diffractograms (XRPD) of the samples were determined by using Instrument: PANalytical; Mode: Expert PRO; Detector: Xcelerator; ScanRange: 3-40; Step size: 0.02; Range: 3-40° 2 theta; CuKα radiation at 45 kV.
0.52 g of the product obtained as per Example 2 was stored in double sealed polybags in a humidity chamber maintained at 50% RH and 25° C. for 4 days to evaluate the stability. The XRPD pattern of the compound stored at 50% RH and 25° C. for 4 days is depicted in FIG. 10.
0.54 g of the product obtained as per Example 2 was stored in double sealed polybags in a humidity chamber maintained at 50% RH and 25° C. for 10 days to evaluate the stability. The XRPD pattern of the compound stored at 50% RH and 25° C. for 10 days is depicted in FIG. 11.
0.54 g of the product obtained as per Example 5 was stored in double-sealed polybags in a humidity chamber maintained at 50% RH and 25° C. for 4 days to evaluate the stability. The XRPD pattern of the product stored at 50% RH and 25° C. for 4 days is depicted in FIG. 13.
0.53 g of the product obtained as per Example 5 was stored in double-sealed polybags in a humidity chamber maintained at 50% RH and 25° C. for 10 days to evaluate the stability. The XRPD pattern of the product stored at 50% RH and 25° C. for 10 days is depicted in FIG. 14. […]

SMILES strings stand for the structures.

The results in this text go back to patent US20150025080A1, “SOLID DISPERSIONS OF SITAGLIPTIN AND PROCESSES FOR THEIR PREPARATION” (RANBAXY LABORATORIES LIMITED, priority 2011, published 2015).

`N[C@@H](CC(=O)N1CCn2c(nnc2C(F)(F)F)C1)Cc1cc(F)c(F)cc1F` [sitagliptin dihydrogen phosphate]: the “time period in which the amorphous form tends to undergo crystallization” value is listed as “about 4 days”.
